Paper PMC2099433, “The binding site for neohesperidin dihydrochalcone at the human sweet taste receptor” (BMC Structural Biology, 2007)
Residue numbers refer to the chain shown, from its start. Where a SMILES comes first, the peptide text is derived from it.

Columns and labels:
[1] = target: T1, hTAS1R2 + hTAS1R3 F778A^6.51 (Homo sapiens, UniProt Q7RTX0+Q8TE23, F778A); experiment: Calcium response (FLIPR), hTAS1R3 mutant coexpressed with hTAS1R2; type: cell-based; settings: variant F778A^6.51; for Emax: read-out: maximal signal (% of wt)
T1 construct: expressed in transfected cells; host or cells: HEK293T cells stably expressing G16Gust44
T1 sequence (Q8TE23 20-839): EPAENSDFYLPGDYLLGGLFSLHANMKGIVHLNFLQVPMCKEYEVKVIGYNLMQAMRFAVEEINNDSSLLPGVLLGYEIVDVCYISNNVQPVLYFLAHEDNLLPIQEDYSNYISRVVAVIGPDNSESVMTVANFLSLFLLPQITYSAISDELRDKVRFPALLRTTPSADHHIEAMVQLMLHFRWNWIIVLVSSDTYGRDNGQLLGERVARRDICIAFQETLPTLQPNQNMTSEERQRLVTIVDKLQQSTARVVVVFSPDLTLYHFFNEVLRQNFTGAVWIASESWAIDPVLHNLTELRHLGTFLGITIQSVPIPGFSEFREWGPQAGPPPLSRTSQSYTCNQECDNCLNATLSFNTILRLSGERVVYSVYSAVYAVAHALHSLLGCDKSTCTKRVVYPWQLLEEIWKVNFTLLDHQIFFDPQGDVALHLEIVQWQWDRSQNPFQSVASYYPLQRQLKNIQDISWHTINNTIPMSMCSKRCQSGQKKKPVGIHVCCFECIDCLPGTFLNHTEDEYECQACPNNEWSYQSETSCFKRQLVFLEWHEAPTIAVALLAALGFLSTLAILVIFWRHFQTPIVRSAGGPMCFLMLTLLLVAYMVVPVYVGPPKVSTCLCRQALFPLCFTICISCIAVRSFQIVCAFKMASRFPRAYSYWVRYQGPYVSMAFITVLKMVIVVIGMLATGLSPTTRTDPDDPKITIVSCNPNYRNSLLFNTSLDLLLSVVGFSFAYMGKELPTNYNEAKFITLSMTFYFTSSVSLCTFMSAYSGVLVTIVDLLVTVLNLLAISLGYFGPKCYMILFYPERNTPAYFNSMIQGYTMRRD
T1 sequence (Q7RTX0 21-852 F778A): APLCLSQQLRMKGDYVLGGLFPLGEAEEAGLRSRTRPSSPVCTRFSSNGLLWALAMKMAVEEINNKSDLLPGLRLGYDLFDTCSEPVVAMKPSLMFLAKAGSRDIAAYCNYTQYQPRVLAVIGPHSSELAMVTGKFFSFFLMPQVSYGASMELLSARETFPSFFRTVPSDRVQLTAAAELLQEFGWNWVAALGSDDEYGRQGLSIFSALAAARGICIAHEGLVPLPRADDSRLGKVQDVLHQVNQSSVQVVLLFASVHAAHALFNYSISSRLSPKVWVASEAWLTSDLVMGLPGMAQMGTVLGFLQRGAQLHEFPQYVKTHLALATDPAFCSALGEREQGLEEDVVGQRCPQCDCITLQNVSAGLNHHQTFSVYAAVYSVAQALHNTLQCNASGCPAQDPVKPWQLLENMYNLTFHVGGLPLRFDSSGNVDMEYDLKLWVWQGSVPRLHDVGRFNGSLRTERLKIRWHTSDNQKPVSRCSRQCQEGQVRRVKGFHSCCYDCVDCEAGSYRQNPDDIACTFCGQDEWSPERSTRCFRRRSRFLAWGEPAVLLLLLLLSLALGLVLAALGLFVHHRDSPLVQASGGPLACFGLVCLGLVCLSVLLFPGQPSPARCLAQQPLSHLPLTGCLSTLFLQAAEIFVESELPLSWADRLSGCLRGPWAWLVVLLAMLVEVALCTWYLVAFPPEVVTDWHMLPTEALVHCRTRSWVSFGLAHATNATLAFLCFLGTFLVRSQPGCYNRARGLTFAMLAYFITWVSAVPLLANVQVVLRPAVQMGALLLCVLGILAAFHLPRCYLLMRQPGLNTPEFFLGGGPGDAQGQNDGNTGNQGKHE
Method in brief: (§1)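 Read-out: FLIPR calcium signal as ΔF/F = (F-F0)/F0, corrected for mock-transfected cells. Cells were HEK293T stably carrying G16Gust44, transiently transfected with HSV-tagged receptor cDNAs and dye-loaded with Fluo4-AM 24 h post transfection.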

[2] = target: T2, hTAS1R2 + hTAS1R3 G804A^7.42 (Homo sapiens, UniProt Q7RTX0+Q8TE23, G804A); experiment: as above; type: cell-based; settings: variant G804A^7.42; for Emax: read-out: maximal signal (% of wt)
T2 construct: expressed in transfected cells; host or cells: HEK293T cells stably expressing G16Gust44
T2 sequence (Q7RTX0 21-852 G804A): T1 sequence (Q7RTX0 21-852 F778A) with A758F, G784A
T2 sequence (Q8TE23 20-839): T1 sequence (Q8TE23 20-839)
Method in brief: as §1

Compound | EC50 [1] [µM] | Emax [1] [%] | EC50 [2] [µM] | Emax [2] [%]
COc1ccc(CCC(=O)c2c(O)cc(O[C@@H]3O[C@H](CO)[C@@H](O)[C@H](O)[C@H]3O[C@@H]3O[C@@H](C)[C@H](O)[C@@H](O)[C@H]3O)cc2O)cc1O [NHDC, neohesperidin dihydrochalcone] | 1500 ± 400 | 50 ± 18 | 1300 ± 500 | 53 ± 10
COC(=O)[C@H](Cc1ccccc1)NC(=O)[C@@H](N)CC(=O)O [aspartame] (HELM PEPTIDE1{D.F.[CO[*:1]]}$$$$V2.0) | 1200 ± 100 | 80 ± 80 | 1600 ± 200 | 44 ± 1
